We go through 7 molecules from patent US5332531A, “Extracting metal ions with diphosphonic acid, or derivative thereof” (priority 1992, dated 1994).

Molecules are shown by their SMILES. Where a name gives a salt, the structure may show the parent alone. Read-outs that look alike come from different tables or passages of the source.

For series [1] the following is noted: 1 M ionic strength, included for comparison; cited from earlier work.
The nature of series [2]: Autodecomposition / storage stability at room or ambient temperature. It is filed as physicochemical.
The format of series [3] is physicochemical. The note with it: for resistance to degradation: mild thermal and/or oxidation conditions. The protocol:
(§1) In addition, compounds were screened for their ability to readily decompose. Thermal degradation of the thermodynamically-unstable complexing agents was performed by heating the complexing agent in 8M HNO3 at 100° C. The thermal degradation of the compounds were followed by analysis via ^1 H, ^13 C and ^31 P NMR (nuclear magnetic resonance) spectroscopy. Furthermore, the water-solubility of metal ion complexes formed with the inventive complexing agents was determined by using macroquantities of neodymium (III), i.e., Nd(III); thorium (IV), i.e., Th(IV), and uranium (VI), i.e., U(VI).
As a result, autodecomposition is observed when the thermodynamically-unstable complexing agents of the present invention complex with metal ions such as ruthenium or tungsten.
(§2) After synthesis, the thermodynamically-unstable complexing agents of the present invention were tested for thermal stability and susceptibility to oxidation by using ^1 H, ^13 C and ^31 P NMR spectroscopy. Furthermore, the acid dissociation constants, i.e., the pKa values, of the thermodynamically-unstable complexing agents were determined by standard potentiometric titration methods. Finally, the thermodynamically-unstable diphosphonic acid complexing agents of the present invention were analyzed with respect to their ability to complex metal ions and with respect to the aqueous solubility of the resulting metal ion complexes. In addition, the solubility of the uncomplexed thermodynamically-unstable complexing agents was determined by using macro-concentrations of neodymium(III) as a substitute for the trivalent actinides; of thorium(IV), as a substitute for plutonium(IV) and neptunium(IV); of uranyl(VI), as representative for all actinide(VI) ions; of iron(III); and of zirconium. The variables included in this solubility determination were the thermally-unstable complexing agent-to-metal ion ratio, the metal ion concentration, and the pH.
More particularly, ^1 H, ^13 C, and ^31 P NMR spectroscopy was used to elucidate and measure the thermal degradation pathways of the thermally-unstable complexing agents of structural formula I, and to evaluate synthesis efforts. For example, ^31 P NMR spectroscopy is especially valuable in identifying the type of phosphorus compound that is synthesized or the type of phosphorous compound produced upon degradation of the thermally-unstable complexing agent. As a result, ^31 P NMR spectroscopy provides a method of showing that a particular diphosphonic acid compound actually was synthesized.

A short description of series [4]: Acid dissociation constants by potentiometric (pH) titration. It is filed as physicochemical. The note with it: for pK1 / pK2 / pK3 / pK4: ionic strength 2 M (NaNO3). On the procedure: as §2
In addition, the thermodynamics of protonation of the thermodynamically-unstable complexing agents of the present invention was investigated by potentiometric (pH) titration.
The acidity constants of the thermodynamically-unstable complexing agents are important in the interpretation of metal ion complexation studies, and also serve as a preliminary indicator of metal ion complex stability and conformation. TABLE III summarizes the acid dissocation constants (pKa) of three substituted diphosphonic acids of the present invention. The acid dissociation constants of oxalic and phosphoric acids are included for comparison.
Metal ion complexation with the thermodynamically-unstable complexing agent was investigated using the solvent extraction distribution ratio method. The medium used in all of the protonation and complexation studies was 2.0M NaNO3 /HNO3. The relatively high ionic strength of this medium was utilized in order to minimize interferences due to activity coefficient changes. Data interpretation in all experiments was accomplished by the application of a generic least-squares program written in BASIC. The program applies a Newton-Raphson type iterative process to the data and minimizes the sum of squares of the residuals. The generic program was adapted to several different forms to fit distribution ratio lowering (Do/D) vs. free ligand concentration measurements, and p (average proton number) data from potentiometric titrations.

Series [5] in a line: Aqueous solubility of metal ion complexes. It is filed as physicochemical. On the procedure:
as §1, §2

A short description of the next series: Dissolution of Goethite. The note with it: 0.5M solution, 100 mg Goethite, 80° C., four hours. The source says: One difficulty, is to ensure contact with ions "embedded" in the surface to be decontaminated. This usually requires destruction or dissolution of a surface oxide layer when the surface is metal. […] This oxide of iron is considered one of the more difficult to penetrate.

The nature of series [6]: Removal of uranium from groundwater, supported liquid membrane-based process. The note with it: 60° to 70° C. overnight, strip solution with uranium. The source says:
Aqueous solutions of the thermodynamically-unstable complexing agents of the present invention can be used in commercially available supported liquid membrane-based modules to strip metal ion contaminants from aqueous solution. Other devices using a porous membrane separating means can also be used. In general the aqueous solution containing uranium is in contact with one side of the porous membrane and the aqueous solution of the complexing agent is in contact with the other. A known organic extractant is permeated into the pores of the membrane to carry the metal ions from one side to the other. The aqueous solution of the complexing agent strips metal ions from the organic extractant in the pores, driving the extraction "reaction" toward removal of metal ions from the solution to be decontaminated.
Aqueous solutions of the thermodynamically-unstable complexing agent described in this application are useful as stripping agents in a supported liquid membrane-based process for removal of uranium contaminants from groundwater. In this process, groundwater containing 10^-4 M uranium is acidified to pH of 2 by addition of small amounts of sulfuric acid and passed through porous polypropylene hollow fibers in a supported liquid membrane module. The pores of the membrane are filled with 0.1M bis(2,4,4-trimethylpentyl)phosphinic acid in n-dodecane. […]

`O=C(O)C(=O)O` [Oxalic Acid, oxalic acid]: in series [1], the pK2 is recorded as 3.55.
`O=C(O)C(O)(P(=O)(O)O)P(=O)(O)O` [compound VII, carboxyhydroxymethanediphosphonic acid]: the products of autodecomposition result in series [2] (free acid form) was “carbon dioxide, water and phosphoric acid”. In addition, the “half-life of autodecomposition (in words)” value in series [2] (free acid form, room temperature) is on record as “from about two days to about three days”.
Consider `CC(O)(P(=O)(O)O)P(=O)(O)O` [HEDPA, 1-hydroxyethane-1,1-diphosphonic acid, reference compound], for which the resistance to degradation entry in series [3] is “ability to resist decomposition”. Further, the resistance to degradation entry in series [3] (listed as compound VIII) is reported as “resisted degradation under mild thermal and/or oxidation conditions”. In series [4], this molecule yielded a pK1 of 1.53, a pK2 of 2.16, a pK3 of 6.18 and a pK4 of 9.09. In series [5] (acid media), the “aqueous solubility of neodymium (III) complexes” value is on record as “only moderate aqueous solubilities” and the “aqueous solubility of thorium (IV) complexes” value is on record as “only moderate aqueous solubilities”.
Molecule `C=C(P(=O)(O)O)P(=O)(O)O` [VDPA, vinylidenediphosphonic acid] gave a Goethite dissolved in the series “Dissolution of Goethite” of 40%. The decomposition result in series [3] (aqueous hydrogen peroxide, moderately elevated temperatures) was “decomposes within hours”. Further, the decomposition result in series [3] (boiling nitric acid) is on record as “decomposes within hours”. Also, the “decomposition by metal catalyzed oxidation” value in series [3] (hydrogen peroxide, metal catalyzed) is reported as “readily decomposed”. Besides, the “decomposition after complexing with a metal ion” value in series [3] (salts of vanadium(V)) is listed as “can be decomposed by salts of vanadium(V) under very mild conditions”. Besides, the “time of destruction by heating” value in series [6] is on record as “about 5 hours”. Also, in series [4], the pK1 is 1.41, the pK2 is given as 2.05, the pK3 is reported as 5.98 and the pK4 is 8.58. Also, in series [5] (acidic media), the “solubility of metal ion complexes” value is reported as “very soluble”. Also, in series [2] (free acid form), the stability entry was “stable”. The stability entry in series [2] (sodium (tetrasodium) salt form) was “stable”.
Take `O=C(O)CC(=O)O` [malonic acid, reference compound]: the Goethite dissolved in “Dissolution of Goethite” is reported as 8%.
`O=P(O)(O)C(O)(CO)P(=O)(O)O` [DHEDPA, 1,2-dihydroxyethane-1,1-diphosphonic acid]: the “time to total decomposition” value in series [3] (free acid form, boiling 8M HNO3) is “about 3 hours”. In addition, the decomposition entry in series [3] (free acid form, hydrogen peroxide at about 60° C.) is on record as “totally decomposes”. The “acid strength (in words)” value in series [4] (TABLE III comparison) is recorded as “strongest acid”. In series [4], this molecule had a pK1 of 0.91, a pK2 of 1.59, a pK3 of 5.82 and a pK4 of 7.97. Further, the products of autodecomposition result in series [2] (free acid form) was “water, carbon dioxide and phosphoric acid”. In addition, the “conversion on previous attempts to isolate free acid” value in series [2] (free acid form, as taught by prior art patent references) was “essentially immediate conversion”. In addition, the half-life of autodecomposition result in series [2] (free acid form, room / ambient temperature) is listed as “about 15 days”. In addition, the products of autodecomposition result in series [2] (free acid form, listed as compound X) is “phosphorous and phosphoric acids”. For the same molecule, the stability result in series [2] (sodium (tetrasodium) salt form, listed as 1,2-dihydroxyethane-1,1-diphosphonic acid) was “stable indefinitely”.
`O=P(O)(O)C(O)(CO)P(=O)(O)O` [tetrasodium salt of compound X]: the stability result in series [2] (sodium (tetrasodium) salt form) is on record as “stable indefinitely at room temperature”.
